Laboratory results as given in ChEMBL document CHEMBL6078695, “Design, synthesis, and biological evaluations of 5-aryl-pyrazole-3-carboxamide derivatives as selective CB2 receptor agonists for the treatment of colitis” (Eur J Med Chem, 2025).
Activity calls are given as the source filed them. The calls are words filed in the database; no cut-off is given here.

What follows are compounds tested against T1, Cannabinoid receptor 2 (Homo sapiens, UniProt P34972) (assay: Antagonist activity at human CB2 receptor expressed in CHO-K1 cells co-transfected with human Galpha16 assessed as intracellular calcium flux). Settings: not given.
T1 sequence (P34972 whole entry): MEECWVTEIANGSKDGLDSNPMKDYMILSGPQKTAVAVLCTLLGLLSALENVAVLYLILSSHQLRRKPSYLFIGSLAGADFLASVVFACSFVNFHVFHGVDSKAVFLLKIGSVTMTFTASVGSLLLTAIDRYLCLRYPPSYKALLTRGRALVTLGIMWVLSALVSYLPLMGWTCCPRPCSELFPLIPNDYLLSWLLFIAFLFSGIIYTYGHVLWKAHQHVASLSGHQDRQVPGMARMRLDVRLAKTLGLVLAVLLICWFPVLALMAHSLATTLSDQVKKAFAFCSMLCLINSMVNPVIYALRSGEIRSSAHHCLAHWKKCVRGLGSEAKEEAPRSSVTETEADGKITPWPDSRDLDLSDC
Format: functional, cell-based
In the case of `COc1ccc(-n2nc(C(=O)NC(C)(C)CO)cc2-c2cccs2)cc1`, the IC50 is reported as > 100 µM.
`CCCCCn1nc(C(=O)NC(C)(C)CO)cc1-c1nccs1` was tested, and the IC50 was > 100 µM.
With `CCCCCCn1nc(C(=O)NC(C)(C)CO)cc1-c1cccs1` the IC50 was > 100 µM.
In the case of `CCCCCn1nc(C(=O)NC(C)(C)CO)cc1-c1ccsc1`, the IC50 is reported as > 100 µM.
For `CCCCCn1nc(C(=O)NC(C)(C)CO)cc1-c1cccn1CC`, the IC50 was > 100 µM.
Compound `CCCCCn1nc(C(=O)NC(C)(C)CO)cc1-c1ccc(Cl)s1` has an IC50 of 0.0322 µM.
In the case of `Cc1ccc(-n2nc(C(=O)NC(C)(C)CO)cc2-c2cccs2)cc1`, the IC50 is reported as > 100 µM.
`CCCCn1nc(C(=O)NC(C)(C)CO)cc1-c1ccn(C)c1` was tested, and the IC50 was > 100 µM.

Each compound was assayed against T1, Cannabinoid receptor 2 (assay: Agonist activity at human CB2 receptor expressed in CHO-K1 cells co-transfected with human Galpha16 assessed as intracellular calcium flux at 10 uM relative to control). Settings: filed as agonist.
Format: functional, cell-based
`CCCCCCn1nc(C(=O)NC(C)(C)CO)cc1-c1cccs1` gave an Emax of 72%.
`CCCCCn1nc(C(=O)NC(C)(C)CO)cc1-c1ccsc1` showed an Emax of 50%.
`CCCCCn1nc(C(=O)NC(C)(C)CO)cc1-c1cccn1CC` showed an Emax of 76%.
Compound `Cc1ccc(-n2nc(C(=O)NC(C)(C)CO)cc2-c2cccs2)cc1` has an Emax of 45%.

Each compound was assayed against T2, Cannabinoid receptor 1 (Homo sapiens, UniProt P21554) (assay: Agonist activity at human CB1 receptor expressed in CHO-K1 cells co-transfected with human Galpha16 assessed as intracellular calcium flux). Settings: not given.
T2 sequence (P21554 whole entry): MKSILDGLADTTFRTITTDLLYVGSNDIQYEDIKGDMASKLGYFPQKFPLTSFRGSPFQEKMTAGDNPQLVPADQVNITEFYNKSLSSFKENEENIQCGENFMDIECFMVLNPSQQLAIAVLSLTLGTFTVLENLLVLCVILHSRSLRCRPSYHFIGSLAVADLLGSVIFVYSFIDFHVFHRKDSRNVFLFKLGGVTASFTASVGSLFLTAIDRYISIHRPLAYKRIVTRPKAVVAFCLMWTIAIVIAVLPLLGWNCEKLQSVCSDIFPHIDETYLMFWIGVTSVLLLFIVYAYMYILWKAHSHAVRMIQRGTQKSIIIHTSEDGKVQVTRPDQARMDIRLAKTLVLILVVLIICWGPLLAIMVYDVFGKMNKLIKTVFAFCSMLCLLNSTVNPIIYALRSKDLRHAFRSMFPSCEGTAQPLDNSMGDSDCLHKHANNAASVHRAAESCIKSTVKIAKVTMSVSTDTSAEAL
Format: functional, cell-based
For `COc1ccc(-n2nc(C(=O)NC(C)(C)CO)cc2-c2cccs2)cc1`, the EC50 was > 100 µM.
In the case of `CCCCCn1nc(C(=O)NC(C)(C)CO)cc1-c1nccs1`, the EC50 is reported as > 100 µM.
In the case of `CCCCCCn1nc(C(=O)NC(C)(C)CO)cc1-c1cccs1`, the EC50 is reported as > 100 µM.
With `CCCCCn1nc(C(=O)NC(C)(C)CO)cc1-c1ccsc1` the EC50 was > 100 µM.
`CCCCCn1nc(C(=O)NC(C)(C)CO)cc1-c1cccn1CC` showed an EC50 of 0.0375 µM.
With `CCCCCn1nc(C(=O)NC(C)(C)CO)cc1-c1ccc(Cl)s1` the EC50 was > 100 µM.
With `Cc1ccc(-n2nc(C(=O)NC(C)(C)CO)cc2-c2cccs2)cc1` the EC50 was > 100 µM.
In the case of `CCCCn1nc(C(=O)NC(C)(C)CO)cc1-c1ccn(C)c1`, the EC50 is reported as > 100 µM.

The compounds below were run against T1, Cannabinoid receptor 2 (assay: Partial agonist activity at human CB2 receptor expressed in CHO-K1 cells co-transfected with human Galpha16 assessed as intracellular calcium flux at 10 uM). Settings: not given.
Format: functional, cell-based
`COc1ccc(-n2nc(C(=O)NC(C)(C)CO)cc2-c2cccs2)cc1` was tested, and the Activity was “inactive”.

Same assay, conditions: filed as partial agonist
For `Cc1ccc(-n2nc(C(=O)NC(C)(C)CO)cc2-c2cccs2)cc1`, the Activity was “Weak_effect”.

Each compound was assayed against T1, Cannabinoid receptor 2 (assay: Agonist activity at human CB2 receptor expressed in CHO-K1 cells co-transfected with human Galpha16 assessed as intracellular calcium flux at 10 uM). Settings: not given.
Format: functional, cell-based
In the case of `CCCCn1nc(C(=O)NC(C)(C)CO)cc1-c1ccn(C)c1`, the Activity is reported as “inactive”.

These compounds were tested against T1, Cannabinoid receptor 2 (assay: Agonist activity at human CB2 receptor expressed in CHO-K1 cells co-transfected with human Galpha16 assessed as intracellular calcium flux). Settings: not given.
Format: functional, cell-based
In the case of `COc1ccc(-n2nc(C(=O)NC(C)(C)CO)cc2-c2cccs2)cc1`, the EC50 is reported as > 100 µM.
`CCCCCn1nc(C(=O)NC(C)(C)CO)cc1-c1nccs1` was tested, and the EC50 was > 100 µM.
`CCCCCCn1nc(C(=O)NC(C)(C)CO)cc1-c1cccs1` was tested, and the EC50 was 0.0195 µM.
In the case of `CCCCCn1nc(C(=O)NC(C)(C)CO)cc1-c1ccsc1`, the EC50 is reported as 0.141 µM.
Work on `CCCCCn1nc(C(=O)NC(C)(C)CO)cc1-c1cccn1CC` yielded an EC50 of 0.0077 µM.
For `CCCCCn1nc(C(=O)NC(C)(C)CO)cc1-c1ccc(Cl)s1`, the EC50 was > 100 µM.
Work on `Cc1ccc(-n2nc(C(=O)NC(C)(C)CO)cc2-c2cccs2)cc1` yielded an EC50 of 1.04 µM.
In the case of `CCCCn1nc(C(=O)NC(C)(C)CO)cc1-c1ccn(C)c1`, the EC50 is reported as > 100 µM.

What follows are compounds tested against T2, Cannabinoid receptor 1 (assay: Antagonist activity at human CB1 receptor expressed in CHO-K1 cells co-transfected with human Galpha16 assessed as intracellular calcium flux). Settings: not given.
Format: functional, cell-based
`COc1ccc(-n2nc(C(=O)NC(C)(C)CO)cc2-c2cccs2)cc1` was tested, and the IC50 was > 100 µM.
In the case of `CCCCCn1nc(C(=O)NC(C)(C)CO)cc1-c1nccs1`, the IC50 is reported as > 100 µM.
With `CCCCCCn1nc(C(=O)NC(C)(C)CO)cc1-c1cccs1` the IC50 was > 100 µM.
In the case of `CCCCCn1nc(C(=O)NC(C)(C)CO)cc1-c1ccsc1`, the IC50 is reported as > 100 µM.
For `CCCCCn1nc(C(=O)NC(C)(C)CO)cc1-c1cccn1CC`, the IC50 was > 100 µM.
In the case of `CCCCCn1nc(C(=O)NC(C)(C)CO)cc1-c1ccc(Cl)s1`, the IC50 is reported as > 100 µM.
In the case of `Cc1ccc(-n2nc(C(=O)NC(C)(C)CO)cc2-c2cccs2)cc1`, the IC50 is reported as > 100 µM.
With `CCCCn1nc(C(=O)NC(C)(C)CO)cc1-c1ccn(C)c1` the IC50 was > 100 µM.

Each compound was assayed against T2, Cannabinoid receptor 1 (assay: Agonist activity at human CB1 receptor expressed in CHO-K1 cells co-transfected with human Galpha16 assessed as intracellular calcium flux at 10 uM relative to control). Settings: filed as agonist.
Format: functional, cell-based
With `CCCCCn1nc(C(=O)NC(C)(C)CO)cc1-c1cccn1CC` the Emax was 90%.
